Measured values published in ChEMBL document CHEMBL5465560, “Selectivity Literature for EUbOPEN Chemogenomic Library” (2024).

Columns and labels:
Aurora kinase B = Aurora kinase B (Homo sapiens, UniProt Q96GD4); experiment: Selectivity interaction (Kinase panel (Z-LYTE Assay)) EUB0001632a AURKB; settings: at 10 µM
[1] = biological target: B2 bradykinin receptor (Homo sapiens) (UniProt P30411); experiment: Selectivity interaction (Eurofins CEREP Diversity Profile (receptors and ion channels)) EUB0000279b BDKRB2; settings: at 10 µM
[2] = biological target: Macrophage colony-stimulating factor 1 receptor (Homo sapiens) (UniProt P07333); experiment: Selectivity interaction (KinomeScan (DiscoverX)) EUB0000666a CSF1R; settings: at 10 µM
[3] = biological target: T1, Tyrosine-protein kinase TXK (Homo sapiens) (UniProt P42681); experiment: Selectivity interaction (KinomeScan (DiscoverX)) EUB0000607a TXK; settings: at 10 µM
T1 sequence (whole entry): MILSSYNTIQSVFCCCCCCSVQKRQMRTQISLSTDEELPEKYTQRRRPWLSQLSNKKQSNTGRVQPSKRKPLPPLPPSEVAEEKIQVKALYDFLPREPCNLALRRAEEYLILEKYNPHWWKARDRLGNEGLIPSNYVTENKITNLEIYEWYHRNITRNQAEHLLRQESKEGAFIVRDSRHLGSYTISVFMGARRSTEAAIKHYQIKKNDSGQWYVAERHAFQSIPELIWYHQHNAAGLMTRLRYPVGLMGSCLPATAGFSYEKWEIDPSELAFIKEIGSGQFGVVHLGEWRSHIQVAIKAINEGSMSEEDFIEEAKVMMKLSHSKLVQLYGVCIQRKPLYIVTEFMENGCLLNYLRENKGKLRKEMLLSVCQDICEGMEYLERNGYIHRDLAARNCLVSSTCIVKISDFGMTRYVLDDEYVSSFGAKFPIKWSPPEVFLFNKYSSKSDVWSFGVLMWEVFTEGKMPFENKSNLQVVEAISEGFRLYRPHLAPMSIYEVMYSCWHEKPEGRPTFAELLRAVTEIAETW

[4] = biological target: Protein-tyrosine kinase 6 (Homo sapiens, UniProt Q13882); experiment: Selectivity interaction (Kinase panel (Invitrogen)) EUB0000639a PTK6; settings: at 200 nM
[5] = biological target: T2, Mitogen-activated protein kinase kinase kinase 2 (Homo sapiens) (UniProt Q9Y2U5); experiment: Selectivity interaction (Kinase panel (Invitrogen)) EUB0000639a MAP3K2; settings: at 200 nM
T2 sequence (whole entry): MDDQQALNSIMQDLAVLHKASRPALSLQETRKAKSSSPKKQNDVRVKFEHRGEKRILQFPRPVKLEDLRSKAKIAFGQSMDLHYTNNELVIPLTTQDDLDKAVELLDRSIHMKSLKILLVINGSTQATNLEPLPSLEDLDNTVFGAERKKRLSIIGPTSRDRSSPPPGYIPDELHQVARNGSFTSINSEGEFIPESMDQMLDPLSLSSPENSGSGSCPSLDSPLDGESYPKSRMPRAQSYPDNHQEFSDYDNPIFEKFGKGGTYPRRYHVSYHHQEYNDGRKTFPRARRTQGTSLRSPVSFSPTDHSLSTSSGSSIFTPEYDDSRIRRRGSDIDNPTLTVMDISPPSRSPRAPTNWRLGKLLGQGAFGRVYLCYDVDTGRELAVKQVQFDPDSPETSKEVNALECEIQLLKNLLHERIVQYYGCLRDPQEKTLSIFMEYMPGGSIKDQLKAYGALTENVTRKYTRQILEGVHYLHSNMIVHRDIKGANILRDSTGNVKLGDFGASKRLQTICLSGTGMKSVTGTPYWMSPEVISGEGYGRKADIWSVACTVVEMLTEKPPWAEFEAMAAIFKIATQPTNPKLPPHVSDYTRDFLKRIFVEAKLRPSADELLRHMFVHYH

[6] = biological target: Serine/threonine-protein kinase B-raf (Homo sapiens) (UniProt P15056); experiment: Selectivity interaction (Kinase panel (Invitrogen)) EUB0000639a BRAF; settings: at 200 nM
[7] = biological target: Serine/threonine-protein kinase NIM1 (Homo sapiens, UniProt Q8IY84); experiment: Selectivity interaction (KinomeScan (DiscoverX)) EUB0000695a NIM1K; settings: at 100 nM
[8] = biological target: T3, Mitogen-activated protein kinase kinase kinase 13 (Homo sapiens) (UniProt O43283); experiment: Selectivity interaction (Ambit KINOMEscan and KiNATiv profiling in Jurkat cells) EUB0000090b MAP3K13; assay type: cell-based; settings: at 1 µM
T3 sequence (whole entry): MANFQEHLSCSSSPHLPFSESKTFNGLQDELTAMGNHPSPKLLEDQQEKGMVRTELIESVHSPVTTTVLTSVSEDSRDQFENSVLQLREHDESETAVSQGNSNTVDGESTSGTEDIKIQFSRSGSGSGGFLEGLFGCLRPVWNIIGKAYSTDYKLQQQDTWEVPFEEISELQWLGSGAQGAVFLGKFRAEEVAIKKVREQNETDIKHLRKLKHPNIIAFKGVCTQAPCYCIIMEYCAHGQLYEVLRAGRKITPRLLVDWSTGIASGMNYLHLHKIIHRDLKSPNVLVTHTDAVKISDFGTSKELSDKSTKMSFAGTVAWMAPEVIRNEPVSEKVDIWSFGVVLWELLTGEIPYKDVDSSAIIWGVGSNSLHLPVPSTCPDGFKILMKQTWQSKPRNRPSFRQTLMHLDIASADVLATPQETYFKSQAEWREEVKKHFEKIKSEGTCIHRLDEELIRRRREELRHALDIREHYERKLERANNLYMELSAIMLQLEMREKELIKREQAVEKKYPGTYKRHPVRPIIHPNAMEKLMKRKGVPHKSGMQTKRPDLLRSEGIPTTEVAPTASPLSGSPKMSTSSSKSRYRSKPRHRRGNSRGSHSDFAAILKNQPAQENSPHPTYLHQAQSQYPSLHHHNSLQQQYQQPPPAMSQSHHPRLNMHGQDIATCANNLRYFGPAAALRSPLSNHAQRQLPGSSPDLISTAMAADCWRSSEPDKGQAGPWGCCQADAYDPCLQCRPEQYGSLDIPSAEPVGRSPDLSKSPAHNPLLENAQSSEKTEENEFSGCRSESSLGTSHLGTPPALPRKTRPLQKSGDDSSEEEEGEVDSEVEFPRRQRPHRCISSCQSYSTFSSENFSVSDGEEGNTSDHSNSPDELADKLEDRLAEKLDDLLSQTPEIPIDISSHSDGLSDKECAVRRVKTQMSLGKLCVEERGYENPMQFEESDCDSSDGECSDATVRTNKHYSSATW

[9] = biological target: Cyclin-dependent kinase-like 1 (Homo sapiens) (UniProt Q00532); experiment: Selectivity interaction (Ambit KINOMEscan and KiNATiv profiling in Jurkat cells) EUB0000090b CDKL1; assay type: cell-based; settings: at 1 µM
[10] = biological target: Ribosomal protein S6 kinase alpha-2 (Homo sapiens) (UniProt Q15349); experiment: Selectivity interaction (KinomeScan (DiscoverX)) EUB0000045b RPS6KA2
[11] = biological target: Histone-lysine N-methyltransferase KMT5B (Homo sapiens) (UniProt Q4FZB7); settings: at 10 µM
[12] = biological target: Serine/threonine-protein kinase 32B (Homo sapiens) (UniProt Q9NY57); experiment: Selectivity interaction (KinomeScan (DiscoverX)) EUB0001619a STK32B; settings: at 1 µM

Ribosomal protein S6 kinase alpha-2 (Homo sapiens), sequence (Q15349 whole entry): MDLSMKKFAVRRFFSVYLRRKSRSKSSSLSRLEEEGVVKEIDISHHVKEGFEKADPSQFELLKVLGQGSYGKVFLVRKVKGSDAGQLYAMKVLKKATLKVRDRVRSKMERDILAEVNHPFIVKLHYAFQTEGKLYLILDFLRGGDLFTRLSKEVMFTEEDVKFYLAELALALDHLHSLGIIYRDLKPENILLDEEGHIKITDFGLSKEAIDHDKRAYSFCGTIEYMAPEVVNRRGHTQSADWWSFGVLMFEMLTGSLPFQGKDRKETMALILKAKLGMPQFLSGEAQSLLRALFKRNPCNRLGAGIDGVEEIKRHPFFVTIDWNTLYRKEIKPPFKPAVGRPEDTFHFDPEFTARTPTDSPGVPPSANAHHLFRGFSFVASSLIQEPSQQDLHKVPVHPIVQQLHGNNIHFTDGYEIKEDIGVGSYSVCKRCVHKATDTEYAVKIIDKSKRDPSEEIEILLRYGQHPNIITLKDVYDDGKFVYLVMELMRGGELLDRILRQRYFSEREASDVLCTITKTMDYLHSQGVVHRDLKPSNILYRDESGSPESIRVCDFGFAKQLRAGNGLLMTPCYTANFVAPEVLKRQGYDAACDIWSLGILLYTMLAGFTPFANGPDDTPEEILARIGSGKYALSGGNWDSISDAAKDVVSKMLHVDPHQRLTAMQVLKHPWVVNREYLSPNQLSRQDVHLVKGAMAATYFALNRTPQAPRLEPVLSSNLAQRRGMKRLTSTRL
Protein-tyrosine kinase 6, sequence (Q13882 whole entry, looked up): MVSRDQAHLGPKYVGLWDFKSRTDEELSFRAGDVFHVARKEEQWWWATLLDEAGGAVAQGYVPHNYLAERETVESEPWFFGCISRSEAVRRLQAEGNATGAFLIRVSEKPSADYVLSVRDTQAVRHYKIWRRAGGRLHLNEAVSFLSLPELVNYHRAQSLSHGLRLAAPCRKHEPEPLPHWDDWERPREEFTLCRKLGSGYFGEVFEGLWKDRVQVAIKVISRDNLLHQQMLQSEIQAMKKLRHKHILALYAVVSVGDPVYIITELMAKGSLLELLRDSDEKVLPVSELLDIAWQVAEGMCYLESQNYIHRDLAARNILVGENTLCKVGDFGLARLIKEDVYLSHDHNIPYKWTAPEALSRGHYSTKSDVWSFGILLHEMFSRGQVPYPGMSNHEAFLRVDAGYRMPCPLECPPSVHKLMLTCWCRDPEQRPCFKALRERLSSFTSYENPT
B2 bradykinin receptor (Homo sapiens), sequence (P30411 whole entry): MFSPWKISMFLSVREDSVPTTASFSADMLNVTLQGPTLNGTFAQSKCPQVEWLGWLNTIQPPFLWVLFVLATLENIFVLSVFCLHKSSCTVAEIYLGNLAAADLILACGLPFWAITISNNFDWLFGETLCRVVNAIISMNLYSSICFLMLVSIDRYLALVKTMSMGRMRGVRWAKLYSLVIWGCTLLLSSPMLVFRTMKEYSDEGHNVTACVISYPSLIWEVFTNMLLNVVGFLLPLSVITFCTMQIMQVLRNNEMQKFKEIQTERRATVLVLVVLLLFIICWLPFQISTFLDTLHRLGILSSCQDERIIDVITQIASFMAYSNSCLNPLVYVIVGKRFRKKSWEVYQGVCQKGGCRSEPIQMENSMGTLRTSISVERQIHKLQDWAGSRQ
Macrophage colony-stimulating factor 1 receptor (Homo sapiens), sequence (P07333 whole entry): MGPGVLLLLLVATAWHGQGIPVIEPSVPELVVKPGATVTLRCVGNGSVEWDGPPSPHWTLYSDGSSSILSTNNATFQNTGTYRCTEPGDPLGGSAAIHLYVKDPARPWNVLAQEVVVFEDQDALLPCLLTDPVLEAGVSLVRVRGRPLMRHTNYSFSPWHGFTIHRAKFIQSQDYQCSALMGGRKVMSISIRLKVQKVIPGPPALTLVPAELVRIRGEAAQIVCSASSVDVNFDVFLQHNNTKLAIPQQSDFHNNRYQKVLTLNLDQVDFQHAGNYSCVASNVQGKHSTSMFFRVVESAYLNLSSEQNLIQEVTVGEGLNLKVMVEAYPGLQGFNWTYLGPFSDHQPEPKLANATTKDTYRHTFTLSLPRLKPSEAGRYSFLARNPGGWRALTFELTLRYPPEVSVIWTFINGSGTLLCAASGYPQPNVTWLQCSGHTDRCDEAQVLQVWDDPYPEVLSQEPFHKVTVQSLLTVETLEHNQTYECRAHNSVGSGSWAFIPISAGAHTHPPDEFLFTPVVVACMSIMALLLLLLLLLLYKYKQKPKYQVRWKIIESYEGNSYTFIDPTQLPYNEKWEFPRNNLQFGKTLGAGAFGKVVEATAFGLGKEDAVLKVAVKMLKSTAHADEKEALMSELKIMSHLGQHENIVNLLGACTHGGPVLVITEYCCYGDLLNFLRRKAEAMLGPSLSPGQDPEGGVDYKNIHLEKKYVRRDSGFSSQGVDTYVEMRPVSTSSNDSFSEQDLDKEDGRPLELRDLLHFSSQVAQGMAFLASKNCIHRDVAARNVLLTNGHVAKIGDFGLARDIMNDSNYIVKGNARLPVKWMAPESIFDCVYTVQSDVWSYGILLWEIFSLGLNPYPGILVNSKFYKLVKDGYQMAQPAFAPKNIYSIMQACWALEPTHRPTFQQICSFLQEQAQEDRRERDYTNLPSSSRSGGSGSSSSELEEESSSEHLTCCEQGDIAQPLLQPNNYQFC
Histone-lysine N-methyltransferase KMT5B (Homo sapiens), sequence (Q4FZB7 whole entry, looked up): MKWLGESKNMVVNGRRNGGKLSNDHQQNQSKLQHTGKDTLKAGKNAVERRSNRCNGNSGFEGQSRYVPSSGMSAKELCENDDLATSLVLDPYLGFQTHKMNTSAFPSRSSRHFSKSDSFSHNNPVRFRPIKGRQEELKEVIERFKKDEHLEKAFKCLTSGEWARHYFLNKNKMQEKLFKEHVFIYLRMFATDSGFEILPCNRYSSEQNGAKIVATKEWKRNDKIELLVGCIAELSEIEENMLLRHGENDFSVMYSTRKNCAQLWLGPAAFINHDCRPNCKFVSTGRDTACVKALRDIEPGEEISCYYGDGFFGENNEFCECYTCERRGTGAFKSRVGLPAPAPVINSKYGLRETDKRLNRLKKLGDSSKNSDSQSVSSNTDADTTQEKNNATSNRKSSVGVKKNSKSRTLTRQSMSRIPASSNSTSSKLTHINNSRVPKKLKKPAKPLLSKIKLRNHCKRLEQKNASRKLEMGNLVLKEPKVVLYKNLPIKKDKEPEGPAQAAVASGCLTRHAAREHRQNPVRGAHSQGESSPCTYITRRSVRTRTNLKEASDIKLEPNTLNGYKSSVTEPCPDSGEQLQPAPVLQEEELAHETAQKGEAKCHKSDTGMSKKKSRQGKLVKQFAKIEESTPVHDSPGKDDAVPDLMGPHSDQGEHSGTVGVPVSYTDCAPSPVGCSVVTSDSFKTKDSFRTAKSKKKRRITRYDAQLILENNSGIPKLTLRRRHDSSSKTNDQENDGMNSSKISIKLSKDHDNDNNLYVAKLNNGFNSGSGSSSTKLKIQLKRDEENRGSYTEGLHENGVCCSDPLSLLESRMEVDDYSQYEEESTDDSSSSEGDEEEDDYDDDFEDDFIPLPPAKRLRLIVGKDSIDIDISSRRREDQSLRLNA
Cyclin-dependent kinase-like 1 (Homo sapiens), sequence (Q00532 whole entry): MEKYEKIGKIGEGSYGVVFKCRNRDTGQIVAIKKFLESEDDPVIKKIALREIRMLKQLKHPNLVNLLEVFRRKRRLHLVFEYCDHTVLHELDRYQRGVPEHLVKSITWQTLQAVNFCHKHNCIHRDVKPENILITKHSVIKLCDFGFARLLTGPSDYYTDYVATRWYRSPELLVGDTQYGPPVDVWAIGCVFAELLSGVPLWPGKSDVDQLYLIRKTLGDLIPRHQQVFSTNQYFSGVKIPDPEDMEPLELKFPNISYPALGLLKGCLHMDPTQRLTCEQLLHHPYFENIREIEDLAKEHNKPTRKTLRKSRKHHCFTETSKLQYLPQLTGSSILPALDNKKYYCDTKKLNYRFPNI
Serine/threonine-protein kinase B-raf (Homo sapiens), sequence (P15056 whole entry): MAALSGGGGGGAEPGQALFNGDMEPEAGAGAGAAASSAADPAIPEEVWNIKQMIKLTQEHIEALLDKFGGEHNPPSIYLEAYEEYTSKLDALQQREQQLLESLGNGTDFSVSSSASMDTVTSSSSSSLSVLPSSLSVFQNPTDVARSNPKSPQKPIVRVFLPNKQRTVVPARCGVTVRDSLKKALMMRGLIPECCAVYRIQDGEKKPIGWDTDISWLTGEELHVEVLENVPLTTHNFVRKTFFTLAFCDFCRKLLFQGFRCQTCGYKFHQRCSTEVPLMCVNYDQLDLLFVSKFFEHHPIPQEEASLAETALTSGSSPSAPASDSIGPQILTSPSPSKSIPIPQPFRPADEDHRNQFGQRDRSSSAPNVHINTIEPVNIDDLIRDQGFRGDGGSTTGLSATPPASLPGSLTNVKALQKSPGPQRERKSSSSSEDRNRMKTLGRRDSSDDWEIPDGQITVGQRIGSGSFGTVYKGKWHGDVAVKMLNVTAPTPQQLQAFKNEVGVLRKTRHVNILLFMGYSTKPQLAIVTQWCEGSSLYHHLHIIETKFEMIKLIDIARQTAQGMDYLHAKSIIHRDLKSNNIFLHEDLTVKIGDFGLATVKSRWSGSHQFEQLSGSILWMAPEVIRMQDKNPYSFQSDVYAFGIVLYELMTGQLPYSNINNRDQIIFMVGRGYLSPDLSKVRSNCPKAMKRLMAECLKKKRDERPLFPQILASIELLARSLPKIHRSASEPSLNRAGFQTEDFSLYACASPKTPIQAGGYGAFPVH
Aurora kinase B, sequence (Q96GD4 whole entry): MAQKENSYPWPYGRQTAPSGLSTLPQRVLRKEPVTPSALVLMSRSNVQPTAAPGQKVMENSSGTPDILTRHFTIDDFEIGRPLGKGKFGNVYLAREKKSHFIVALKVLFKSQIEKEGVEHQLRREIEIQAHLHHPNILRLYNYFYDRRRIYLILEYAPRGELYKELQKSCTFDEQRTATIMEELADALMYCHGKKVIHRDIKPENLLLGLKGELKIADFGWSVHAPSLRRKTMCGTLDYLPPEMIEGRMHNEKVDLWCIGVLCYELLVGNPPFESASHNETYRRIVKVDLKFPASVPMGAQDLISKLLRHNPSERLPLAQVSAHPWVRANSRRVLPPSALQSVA

**Q.** `Cn1cc(-n2cnc3c(NCc4nc5cc(Cl)c(Cl)cc5[nH]4)nc(N4CCOCC4)nc32)cn1` was tested. Which % of control (Aurora kinase B) did it give?
**A.** 11.8%

**Q.** `CC(=O)c1cc(-c2ccccc2OCC2CC2)c2ncccn12` was tested. Which % of control [1] did it give?
**A.** 112%

**Q.** For `O=C(NOC[C@H](O)CO)c1ccc(F)c(F)c1Nc1ccc(I)cc1F`, which % of control [2] is on record?
**A.** 80%

**Q.** How did the % of control [3] turn out when `CNC(=O)Nc1ccc(-c2nc(N3CC4CCC(C3)O4)c3cnn(C4CCC5(CC4)OCCO5)c3n2)cc1` was run?
**A.** 94%

**Q.** What does the source list for `CC[C@@H]1[C@H](F)C(=O)N[C@@H]1COc1nccc2cc(C(N)=O)c(OC)cc12` [ZIMLOVISERTIB]?
**A.** % of inhibition [4]: -1.08%; % of inhibition [5]: -4.03%; % of inhibition [6]: 8.97%

**Q.** How did the % of control [7] turn out when `Cc1cc(F)c(C(=O)Nc2cccc(-c3nncn3C(C)C)n2)cc1-n1cnc(C2CC2)c1` was run?
**A.** 84%

**Q.** Which results are given for `CN(C)C/C=C/C(=O)Nc1ccc(C(=O)N2CCCC(Nc3ncc(Cl)c(-c4c[nH]c5ccccc45)n3)C2)cc1` (centres undefined)?
**A.** % of control [8]: 95%; % of control [9]: 38%

**Q.** Which % of control ([10]; at 1 µM) does the source give for `C=CC(=O)Nc1cc(-n2c(=O)ccc3cnc4ccc(-c5ccc(NS(C)(=O)=O)cc5)cc4c32)ccc1C` here?
**A.** 100%

**Q.** What about the % of control ([10]; at 10 µM) of the same compound?
**A.** 68%

**Q.** Which % activity [11] does the source give for `CNCCN1CCC(c2cc(CN(C)C(=O)c3cccc(Oc4ccccc4)c3)ccn2)CC1` here?
**A.** > 90%

**Q.** `N#Cc1cccc(-c2c[nH]c3ncnc(N4CCOCC4)c23)c1` was tested. Which % of control [12] did it give?
**A.** 53%
